Measured values as given in US20150306112A1 (National Cheng Kung University, priority 2014, published 2015).

Key:
[1] = test system: JAK2, STAT3, STAT5 and LMO2 in HepG2 cells; test: Immunoblot of JAK2/STAT3/STAT5/LMO2 in HepG2 cells; format: cell-based, human; settings: 20 μM, 48 h
Procedure: (§1) FIG. 3. […] Total cell lysates were examined for the indicated proteins by immunoblotting. (B) Jurkat cells were transfected with p-GAS-Luc plasmids. […] Total cell lysates were harvested, and their luciferase activities were determined and normalised to the total protein. […] Total mRNA was prepared, and the mRNA levels of IRF-1 and SOCS-1 were detected by RT-PCR. GAPDH was used as the reference band. […] Total cell lysates were examined for the indicated proteins by immunoblotting. β-actin was used as internal control. […] Total cell lysates were examined for the indicated proteins by immunoblotting. All data are one of three independent experiments with similar results.
(§2) As JAK2/STAT3 signaling has a role in human hepatoma HepG2 cell proliferation, JAK2 activation promotes recruitment to the receptor complex of STAT3 and STAT5 [32], and LMO2 expression.

JAK1 and TYK2 = test: Immunoblot of IFN-α/IFN-β-induced STAT1 and JAK1 phosphorylation in Jurkat cells; format: cell-based, human
Procedure: as §1, §2

human JAK3 JH1-JH2 = biological target: T1, human JAK3 JH1-JH2 (Homo sapiens, UniProt P52333); test: Native PAGE antibody competition, JAK3 JH1-JH2; format: binding; settings: antibody against aa 716-967
T1 construct: incubated with human JAK2 JH1-JH2 and JAK3 JH1-JH2 at 37° C. for 3 h; purchased Life Technologies
T1 sequence (P52333 521-1124): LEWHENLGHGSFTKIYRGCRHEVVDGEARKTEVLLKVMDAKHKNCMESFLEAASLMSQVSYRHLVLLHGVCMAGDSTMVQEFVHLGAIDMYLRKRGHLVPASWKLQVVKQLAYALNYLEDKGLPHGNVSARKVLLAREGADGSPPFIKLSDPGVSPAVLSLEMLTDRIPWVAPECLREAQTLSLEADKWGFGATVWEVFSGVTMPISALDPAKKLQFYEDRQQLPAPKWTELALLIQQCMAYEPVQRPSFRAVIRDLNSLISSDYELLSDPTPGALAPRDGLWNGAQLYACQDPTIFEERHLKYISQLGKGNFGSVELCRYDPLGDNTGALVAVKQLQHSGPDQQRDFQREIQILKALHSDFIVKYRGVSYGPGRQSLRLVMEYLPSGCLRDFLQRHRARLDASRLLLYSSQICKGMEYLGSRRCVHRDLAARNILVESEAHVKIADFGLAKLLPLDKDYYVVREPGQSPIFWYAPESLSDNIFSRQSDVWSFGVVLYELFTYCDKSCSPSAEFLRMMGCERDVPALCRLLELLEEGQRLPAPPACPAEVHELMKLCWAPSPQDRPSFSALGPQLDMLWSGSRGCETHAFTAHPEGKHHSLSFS
Procedure: Samples were loaded onto native PAGE gels for electrophoresis, and the levels of free JH1-JH2 domain were measured by immunoblotting.

[2] = test system: P-388 murine leukaemia cells; settings: cited from earlier work
[3] = test system: IRF-1 and SOCS-1 transcription; test: RT-PCR of IRF-1 and SOCS-1 mRNA; format: cell-based, human; settings: Jurkat and THP-1 cells
Procedure: as §1
Total RNA was extracted using the Trizol reagent according to the manufacturer's instructions. IRF-1, SOCS-1 and glyceraldehyde 3-phosphate GAPDH mRNA expression levels were detected by RT-PCR.

JAK3 = test: Immunoblot of IL-2 induced JAK3/STAT5 phosphorylation in Jurkat and THP-1 cells; format: cell-based, human; settings: ZAA 3 h, cytokine 30 min
Procedure: as §1
(§3) Cell lysates were analysed by western blot with primary antibodies against JAK2, pJAK2, JAK3, pJAK3, pSTAT1, pSTAT3, pSTAT5 and β-actin, followed by the appropriate HRP-linked secondary antibodies. Immunoreactive protein bands were detected using an enhanced chemiluminescence (ECL) kit (Pierce Biotechnology, Rockford, Ill.).

IRF-1 in Jurkat cells = test: IRF-1 expression by immunoblot in Jurkat cells; format: cell-based, human; settings: 20 μM, vs vehicle-treated cells
Procedure: (§4) FIG. 1. […] After the incubation, cell lysates were assessed by immunoblot. […] In the same condition, cell proliferation was evaluated at 24, 48 and 72 h by MTS assay (lower). […] Data are expressed as the mean±SEM (n=4). **P, 0.01; ***P, 0.001 vs. stimulators-treated groups. Similar results were obtained in at least three independent experiments.
The increase in cleaved pro-caspase-3 and pro-caspase-8 was also observed at the end of the 24 h ZAA-treatment. […] In other words, ZAA was safe in normal cells, but not in rapidly proliferating cells.

human JAK2 JH1-JH2 = test: Native PAGE antibody competition, JAK2 JH1-JH2; format: binding; settings: antibody against JAK2 aa 745-955
[4] = test system: BALB/c and C57/BL6 splenocytes; test: Mixed lymphocyte reaction assay; format: cell-based, mouse; settings: 72 h, MTS
Procedure: (§5) FIG. 5. […] Cell proliferation was measured by MTS assay. ***P<0.001, **P<0.01, *P<0.05 when compared with the control group. […] Following incubation, proteins were extracted and assessed by immunoblot analysis. Similar results were obtained in at least three independent experiments.
The cell number of total lymphocytes was measured using the CellTiter kit.

[5] = test system: interferon-gamma activated sequence (GAS); test: Reporter assay for GAS transactivation activity; format: cell-based, human; settings: Jurkat cells, IFN-γ 20 ng/mL, luciferase reporter
Procedure: as §1
The serum-containing medium of logarithmic growth Jurkat cells was replaced with serum-free RPMI, and the cells were transfected with p-GAS-Luc (0.5 μg/mL) plasmids using the Neon Transfection System (Invitrogen). Four hours later, the serum-free medium was replaced with RPMI containing 10% FBS. […] Luciferase reporter activity was measured according to the manufacturer's recommendation.

[6] = test system: STAT1, STAT3 and IRF-1 in splenocytes; test: Immunoblot of IFN-γ/pSTAT1 and IL-6/pSTAT3 signaling in splenocytes; format: cell-based, mouse
Procedure: as §4
as §3, with “immunoblotting” for “western blot”, “against” for “against JAK2, pJAK2, JAK3, pJAK3,”, “IRF-1” for “pSTAT5”

[7] = test system: Con A-induced liver injury; test: Con A-induced hepatitis in mice; format: in vivo, C57BL/6 mice
Procedure: FIG. 4. […] (A) Representative microphotographs showing liver and spleen histopathologic changes with hematoxylin-and-eosin-staining (original magnification ×200). (B) The necrosis was analysed with a four-point score: 0, no; 1, 1-20% necrosis; 2, 20-40% necrosis; 3, >40% necrosis. Infiltration of leukocytes was graded on a four-point severity scale: 0, none; 1, little; 2, moderate; 3, mass. (C) Serum ALT and AST activities were measured at 8 h after Con A injection. (D) Serum levels of IFN-γ, IL-6 and IL-4 were measured at 8 h after Con A injection by ELISA. (E) Proteins from liver and spleen tissues of vehicle, ZAA and dexamethasone-treated mice were extracted and subjected to immunoblot. Values are shown as mean±S.E.M. from individual mice (n=10-13 mice/group). ***P<0.001,**P<0.01, *P<0.05 as compared with vehicle-treated mice. Similar results were obtained in at least three independent experiments.
The positive control animals with Con A-induced hepatitis were given the same amount of solvent (0.2% cyclodextrin) i.p., without any drugs. Blood samples were collected from each group for plasma transaminase activities and cytokine expression level determination. Part of the liver and spleen biopsy samples were fixed in 10% formalin, embedded in paraffin for further hematoxylin-eosin staining and the rest of the tissue samples were frozen at −80° C. for further studies.
Liver injury was quantified by determination of alanine aminotransferase (ALT) and aspartate aminotransferase (AST) activities in serum, according to the Reitman-Frankel method.

pSTAT1 and IRF-1 = test: Immunoblot of IFN-γ activated pSTAT1 and IRF-1 in Jurkat, THP-1, HMEC-1 and Chang liver cells; format: cell-based, human; settings: 2 h and 8 h, ZAA pre-treatment
Procedure: FIG. 7. IFN-γ-activated STAT1 and induced IRF-1 protein expression in Jurkat, THP-1, Chang liver and HMEC-1 cells. […] After various time periods, cells were harvested, and total protein extracts were prepared for imunoblot analysis using the indicated antibodies. Similar results were obtained in at least three independent experiments.
as §3, with “immunoblotting” for “western blot”, “against” for “against JAK2, pJAK2, JAK3, pJAK3,”, “IRF-1” for “pSTAT5”

STAT3 in RAW264.7 cells = test: Immunoblot of IL-6-induced pSTAT3 in RAW264.7 cells; format: cell-based
Procedure: as §5
as §3, with “immunoblotting” for “western blot”, “against” for “against JAK2, pJAK2, JAK3, pJAK3,”, “IRF-1” for “pSTAT5”

JAK2 = test: Immunoblot of JAK2/STAT phosphorylation in Jurkat and THP-1 cells; format: cell-based, human; settings: ZAA 3 h, cytokine 30 min
Procedure: as §1, §3

[8] = test system: IFN-γ secretion of primary mouse splenocytes; test: IFN-γ secretion analysis by ELISA in splenocytes; format: cell-based; settings: 24 h, concentration-dependent
Procedure: as §4
Primary mouse splenocytes were plated at 1×10^5 cells/well with 10% FBS RPMI medium in 96-well plates. Four different experimental conditions were tested. […] All experiments were conducted at 37° C. After a total 24 h of incubation, supernatant IFN-γ concentrations were measured by ELISA kit following the manufactures instructions.

C57/BL6 splenocytes = test: Splenocyte proliferation by MTS assay; format: cell-based, mouse
Procedure: as §4
Primary mouse splenocytes were cultured in 96-well plates at a density of 4×10^5 cells/well in 10% FBS RPMI 1640 medium and activated with three different stimulators (Con A: 5 μg/mL; PHA: 2.5 μg/mL; Anti-CD3/CD28: 10/1 μg/mL) at 37° C. in 5% CO2/air. […] The cell proliferation was evaluated by MTS assay with a CellTiter kit (Promega, Madison, Wis.).

Jurkat cells = test: Jurkat cell proliferation by MTS assay and caspase immunoblot; format: cell-based, human
[9] = 20 mg/kg i.p., 8 h after Con A injection

C=C(CC[C@@H](C)[C@H]1CC[C@H]2C3=C(C(=O)C[C@]12C)[C@@]1(C)CCC(=O)[C@@H](C)[C@@H]1CC3=O)C(C)C(=O)O (some centres unmarked) [ZAA, Zhankuic acid A]
phosphorylation of JAK2, STAT3 and STAT5, and LMO2 expression [1]: effectively inhibit
JAK1 phosphorylation (JAK1 and TYK2; 20 μM): not suppressed
IFN-α and IFN-β-induced STAT1 phosphorylation (JAK1 and TYK2; Jurkat cells, via JAK1 and TYK2): could not inhibit
anti-JAK3 antibody recognition of native JH1-JH2 domain (human JAK3 JH1-JH2): reduced
cytotoxic activity [2]: exhibited cytotoxic activity
IFN-γ stimulated IRF-1 and SOCS-1 transcription [3]: significantly prevented
IL-2 induced JAK3/STAT5 phosphorylation (JAK3): potently inhibited
IRF-1 expression (IRF-1 in Jurkat cells): suppressed
anti-JAK2 antibody recognition of native JH1-JH2 domain (human JAK2 JH1-JH2): reduced
cell proliferation in mixed lymphocytes reaction [4]: inhibitory effect
GAS-mediated transactivation [5]: inhibited
IRF-1 (downstream of STAT) ([6]; IFN-γ, concentration-dependent): inhibitory effect
IL-6-induced Tyr705 phosphorylation of STAT3 ([6]; splenocytes): suppress
IFN-γ-induced Tyr701 phosphorylation of STAT1 ([6]; splenocytes and Jurkat cells, IFN-γ 30 min): completely inhibit
extent of liver damage (histopathology) ([7]; 20 mg/kg i.p. 1 h prior to Con A, 8 h): markedly reduce
pathologic grades: necrosis and infiltration of leukocytes ([7]; 20 mg/kg i.p. pre-treatment): significant preventative effects
hepatitis phenotype by ALT and AST serum levels ([7]; 20 mg/kg i.p., 8 h after Con A): almost completely recovered
reduction of serum level of IFN-γ [7, 9]: 37%
reduction of serum level of IL-4 [7, 9]: 38%
reduction of serum level of IL-6 [7, 9]: 66%
caspase 3 activity and IRF-1 expression in liver and spleen tissues ([7]; 20 mg/kg pre-treatment, immunoblot): significantly reduced
IFN-γ activated pSTAT1 and IRF-1 (pSTAT1 and IRF-1): suppressed
IL-6-induced Tyr705 phosphorylation of STAT3 (STAT3 in RAW264.7 cells): suppress
IFN-γ-induced JAK2/STAT1, IL-6 induced JAK2/STAT1 and JAK2/STAT3, GM-CSF induced JAK2/STAT5 phosphorylation (JAK2): potently inhibited
Con-A-induced IFN-γ secretion [8]: reduced
stimulator-activated T cell proliferation (C57/BL6 splenocytes; Con-A, PHA or anti-CD3/CD28-induced splenocytes, concentration-dependent): significantly inhibited
proliferation of splenocytes, ZAA alone (C57/BL6 splenocytes; no stimulator, up to 20 μM): did not affect
cleaved pro-caspase-3 and pro-caspase-8 (Jurkat cells; Jurkat, 24 h ZAA-treatment): increase
Jurkat cell proliferation (Jurkat cells; without or with Con A, MTS): remarkably inhibited
